Measured values as given in patent publication US12077503B2, “Substituted cyclic amides and their use as herbicides” (FMC CORPORATION, priority 2015, dated 2024).

Experiments:
Assay type in all cases: in vivo
[1] = system: rice (Oryra sativa); assay: Test B flooded paddy test; settings: Flood, 250 g ai/ha; 0 to 100 scale where 0 is no effect and 100 is complete control; 13 to 15 d
Procedure: (§1) Plant species in the flooded paddy test selected from rice (Oryra sativa), sedge, umbrella (small-flower umbrella sedge, Cyperus difformis), ducksalad (Heteranthera limosa), and barnyardgrass (Echinochloa crus-galli) were grown to the 2-leaf stage for testing. At time of treatment, test pots were flooded to 3 cm above the soil surface, treated by application of test compounds directly to the paddy water, and then maintained at that water depth for the duration of the test. Treated plants and controls were maintained in a greenhouse for 13 to 15 d, after which time all species were compared to controls and visually evaluated. Plant response ratings, summarized in Table B, are based on a scale of 0 to 100 where 0 is no effect and 100 is complete control. A dash (-) response means no test result.

[2] = system: sedge, umbrella (small-flower umbrella sedge, Cyperus difformis); assay: Test B flooded paddy test; settings: Flood, 250 g ai/ha; 0 to 100 scale where 0 is no effect and 100 is complete control; 13 to 15 d
Procedure: as §1

[3] = system: ducksalad (Heteranthera limosa); assay: Test B flooded paddy test; settings: Flood, 250 g ai/ha; 0 to 100 scale where 0 is no effect and 100 is complete control; 13 to 15 d
Procedure: as §1

[4] = system: barnyardgrass (Echinochloa crus-galli); assay: Test B flooded paddy test; settings: Flood, 250 g ai/ha; 0 to 100 scale where 0 is no effect and 100 is complete control; 13 to 15 d
Procedure: as §1

[5] = system: giant foxtail (Setaria faberii); assay: Test A preemergence
Excerpt: (§2) Seeds of plant species selected from barnyardgrass (Echinochloa crus-galli), Kochia (Kochia scoparia), ragweed (common ragweed, Ambrosia elatior), ryegrass, Italian (Italian ryegrass, Lolium multiflorum), crabgrass, large (Digitaria sanguinalis), giant foxtail (Setaria faberii), green foxtail (Setaria viridis), morningglory (Ipomoea spp.), pigweed (Amaranthus retroflexus), velvetleaf (Abutilon theophrasti), wheat (Triticum aestivum), and corn (Zea mays) were planted into a blend of loam soil and sand and treated preemergence with a directed soil spray using test chemicals formulated in anon-phytotoxic solvent mixture which included a surfactant.
(§3) At the same time, plants selected from these crop and weed species and also blackgrass (Alopecurus myosuroides), and Galium (catchweed bedstraw, Galium aparine) were planted in pots containing the same blend of loam soil and sand and treated with postemergence applications of test chemicals formulated in the same manner. Plants ranged in height from 2 to 10 cm and were in the one- to two-leaf stage for the postemergence treatment. Treated plants and untreated controls were maintained in a greenhouse for approximately 10 d, after which time all treated plants were compared to untreated controls and visually evaluated for injury. Plant response ratings, summarized in Table A, are based on a 0 to 100 scale where 0 is no effect and 100 is complete control. A dash (-) response means no test result.

[6] = system: pigweed (Amaranthus retroflexus); assay: Test A preemergence
Excerpt: as §2, §3

[7] = system: ragweed (common ragweed, Ambrosia elatior); assay: Test A preemergence
Excerpt: as §2, §3

[8] = system: Kochia (Kochia scoparia); assay: Test A preemergence
Excerpt: as §2, §3

[9] = system: ryegrass, Italian (Italian ryegrass, Lolium multiflorum); assay: Test A preemergence
Excerpt: as §2, §3

[10] = system: barnyardgrass (Echinochloa crus-galli); assay: Test A preemergence
Excerpt: as §2, §3

[11] = system: giant foxtail (Setaria faberii); assay: Test A postemergence
Excerpt: as §2, §3

[12] = system: wheat (Triticum aestivum); assay: Test A postemergence
Excerpt: as §2, §3

[13] = system: corn (Zea mays); assay: Test A postemergence
Excerpt: as §2, §3

[14] = system: blackgrass (Alopecurus myosuroides); assay: Test A postemergence
Excerpt: as §2, §3

[15] = system: pigweed (Amaranthus retroflexus); assay: Test A postemergence
Excerpt: as §2, §3

[16] = system: ragweed (common ragweed, Ambrosia elatior); assay: Test A postemergence
Excerpt: as §2, §3

[17] = system: Kochia (Kochia scoparia); assay: Test A postemergence
Excerpt: as §2, §3

[18] = system: ryegrass, Italian (Italian ryegrass, Lolium multiflorum); assay: Test A postemergence
Excerpt: as §2, §3

[19] = system: barnyardgrass (Echinochloa crus-galli); assay: Test A postemergence
Excerpt: as §2, §3

[20] = system: Galium (catchweed bedstraw, Galium aparine); assay: Test A postemergence
Excerpt: as §2, §3

[21] = 125 g ai/ha, preemergence, 0 to 100 scale (0 no effect, 100 complete control)
[22] = Preemergence, 500 g ai/ha, visual injury approx. 10 d
[23] = 125 g ai/ha, postemergence, visual injury rating on 0 to 100 scale (0 no effect, 100 complete control), approx. 10 d
[24] = 500 g ai/ha, postemergence, 0 to 100 scale, 0 no effect, 100 complete control
[25] = 125 g ai/ha, Preemergence, visual injury after approximately 10 d, 0 to 100 scale where 0 is no effect and 100 is complete control
[26] = 500 g ai/ha, preemergence, 0 to 100 scale, 0 = no effect, 100 = complete control
[27] = 125 g ai/ha, postemergence, visual rating after approx. 10 d, 0 to 100 scale (0 no effect, 100 complete control)
[28] = Postemergence, 500 g ai/ha, 0 to 100 scale where 0 is no effect and 100 is complete control

CN1CC(c2ccc(F)cc2)C(C(=O)Nc2cccc(F)c2F)C1=O (stereo not drawn) [Compound 438]
Plant response rating, Rice [1]: 20 | Plant response rating, Sedge, Umbrella [2]: 0 | Plant response rating, Ducksalad [3]: 100 | Plant response rating, Barnyardgrass [4]: 85 | Plant response rating, Foxtail, Giant [5, 21]: 100 | Foxtail, Giant plant response rating (0 to 100 scale, 0 is no effect, 100 is complete control) [5, 22]: 100 | Plant response rating, Pigweed [6, 21]: 80 | Pigweed plant response rating (0 to 100 scale, 0 is no effect, 100 is complete control) [6, 22]: 90 | Plant response rating, Ragweed [7, 21]: 60 | Ragweed plant response rating (0 to 100 scale, 0 is no effect, 100 is complete control) [7, 22]: 90 | Plant response rating, Kochia [8, 21]: 70 | Kochia plant response rating (0 to 100 scale, 0 is no effect, 100 is complete control) [8, 22]: 80 | Plant response rating, Ryegrass, Italian [9, 21]: 50 | Ryegrass, Italian plant response rating (0 to 100 scale, 0 is no effect, 100 is complete control) [9, 22]: 70 | Plant response rating, Barnyardgrass [10, 21]: 90 | Barnyardgrass plant response rating (0 to 100 scale, 0 is no effect, 100 is complete control) [10, 22]: 100 | Foxtail, Giant plant response rating [11, 23]: 90 | Plant response rating, Foxtail, Giant [11, 24]: 90 | Wheat plant response rating [12, 23]: 30 | Plant response rating, Wheat [12, 24]: 70 | Corn plant response rating [13, 23]: 0 | Plant response rating, Corn [13, 24]: 50 | Blackgrass plant response rating [14, 23]: 40 | Plant response rating, Blackgrass [14, 24]: 70 | Pigweed plant response rating [15, 23]: 0 | Plant response rating, Pigweed [15, 24]: 60 | Ragweed plant response rating [16, 23]: 0 | Plant response rating, Ragweed [16, 24]: 30 | Kochia plant response rating [17, 23]: 70 | Plant response rating, Kochia [17, 24]: 70 | Ryegrass, Italian plant response rating [18, 23]: 40 | Plant response rating, Ryegrass, Italian [18, 24]: 60 | Barnyardgrass plant response rating [19, 23]: 90 | Plant response rating, Barnyardgrass [19, 24]: 90 | Galium plant response rating [20, 23]: 40 | Plant response rating, Galium [20, 24]: 50

CN1CC(c2cccc(OC(F)F)c2)C(C)(C(=O)Nc2cccc(F)c2F)C1=O (stereo not drawn) [Compound 619]
Plant response rating, Rice [1]: 0 | Plant response rating, Sedge, Umbrella [2]: 0 | Plant response rating, Ducksalad [3]: 0 | Plant response rating, Barnyardgrass [4]: 0 | Plant response rating, Foxtail, Giant [5, 25]: 0 | Plant response rating, Foxtail, Giant [5, 26]: 0 | Plant response rating, Pigweed [6, 25]: 0 | Plant response rating, Pigweed [6, 26]: 0 | Plant response rating, Ragweed [7, 25]: 0 | Plant response rating, Ragweed [7, 26]: 0 | Plant response rating, Kochia [8, 25]: 20 | Plant response rating, Kochia [8, 26]: 20 | Plant response rating, Ryegrass, Italian [9, 25]: 0 | Plant response rating, Ryegrass, Italian [9, 26]: 0 | Plant response rating, Barnyardgrass [10, 25]: 0 | Plant response rating, Barnyardgrass [10, 26]: 0 | Plant response rating, Foxtail, Giant [11, 27]: 0 | Plant response rating, Foxtail, Giant [11, 28]: 0 | Plant response rating, Wheat [12, 27]: 0 | Plant response rating, Wheat [12, 28]: 0 | Plant response rating, Corn [13, 27]: 0 | Plant response rating, Corn [13, 28]: 0 | Plant response rating, Blackgrass [14, 27]: 0 | Plant response rating, Blackgrass [14, 28]: 0 | Plant response rating, Pigweed [15, 27]: 0 | Plant response rating, Pigweed [15, 28]: 0 | Plant response rating, Ragweed [16, 27]: 0 | Plant response rating, Ragweed [16, 28]: 0 | Plant response rating, Kochia [17, 27]: 0 | Plant response rating, Kochia [17, 28]: 0 | Plant response rating, Ryegrass, Italian [18, 27]: 0 | Plant response rating, Ryegrass, Italian [18, 28]: 0 | Plant response rating, Barnyardgrass [19, 27]: 0 | Plant response rating, Barnyardgrass [19, 28]: 0 | Plant response rating, Galium [20, 27]: 0 | Plant response rating, Galium [20, 28]: 0
